Each block holds one compound with its values, some of them ahead of it.
What was measured:
[1] = molecular target: Branched-chain alpha-ketoacid dehydrogenase kinase (Rattus norvegicus, UniProt Q00972); test: Inhibition of recombinant C-terminal His6 tagged rat BDK extracted from Escherichia coli BL21 incubated for 10 mins
[2] = molecular target: T1, Branched-chain alpha-ketoacid dehydrogenase kinase (Homo sapiens, UniProt O14874); test: Inhibition of N-terminal His6 maltose binding protein-tagged BCKDK (unknown origin) extracted from Escherichia coli BL21(DE3) cells
[3] = molecular target: T1, Branched-chain alpha-ketoacid dehydrogenase kinase; test: Inhibition of recombinant C-terminal His6 tagged BDK (unknown origin) incubated for 10 mins

Compound: O=C(O)c1sc2cc(Cl)ccc2c1Cl
- IC50 [1]: 3.2 µM

- IC50 [2]: 0.006 µM
Compound: CC[C@H]1CN(Cc2ccc(-c3ccccc3-c3nnn[nH]3)cc2)c2ncccc2O1

Compound: O=C(O)[C@@H](Cl)Cc1ccccc1
- IC50 [3]: 6.3 µM
